The subject of experiment [1] is MG-63. The experiment can be described thus: Antiproliferative activity against human MG63 cells assessed as reduction in cell proliferation at 500 uM after 72 hrs by crystal violet staining based assay. It is filed as functional.
The test system of experiment [2] is J774.A1. The experiment can be described thus: Antiproliferative activity against mouse J774A.1 cells assessed as change in cell proliferation at 100 uM after 72 hrs by crystal violet staining based assay relative to control. In kind it is functional.
Experiment [3] has as its system RAW264.7. The experiment can be described thus: Antiproliferative activity against mouse RAW264.7 cells assessed as change in cell proliferation at 100 uM after 72 hrs by crystal violet staining based assay relative to control. It is filed as functional.
Experiment [4] deals with T1, Farnesyl pyrophosphate synthase (Homo sapiens) (UniProt P14324).
T1 sequence (whole entry): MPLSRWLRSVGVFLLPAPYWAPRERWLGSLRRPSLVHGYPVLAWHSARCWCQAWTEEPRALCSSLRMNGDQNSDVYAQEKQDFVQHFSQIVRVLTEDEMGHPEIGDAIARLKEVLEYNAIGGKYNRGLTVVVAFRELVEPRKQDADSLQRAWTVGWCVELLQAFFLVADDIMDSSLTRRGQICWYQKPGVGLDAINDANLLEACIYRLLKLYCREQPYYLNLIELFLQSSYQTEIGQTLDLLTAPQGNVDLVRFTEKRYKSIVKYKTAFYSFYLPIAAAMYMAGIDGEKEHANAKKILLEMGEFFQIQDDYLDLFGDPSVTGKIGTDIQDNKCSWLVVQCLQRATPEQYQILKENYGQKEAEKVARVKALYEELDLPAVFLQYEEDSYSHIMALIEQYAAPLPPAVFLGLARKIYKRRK
The experiment can be described thus: Inhibition of recombinant human C-terminal His6-tagged FPPS expressed in Escherichia coli BL21 at 100 uM using DMAPP and IPP as substrates pretreated for 15 mins followed by substrates addition and measured after 1 hr by colorimetric method relative to control.

Experiment [5] has as its system PC-3. Put plainly: Antiproliferative activity against human PC3 cells assessed as reduction in cell proliferation at 500 uM after 72 hrs by crystal violet staining based assay. It is filed as functional.
Experiment [6] has as its system RAW264.7. Put plainly: Antiproliferative activity against mouse RAW264.7 cells assessed as reduction in cell proliferation at 500 uM after 72 hrs by crystal violet staining based assay. It is filed as functional.
Experiment [7] concerns J774.A1. Put plainly: Antiproliferative activity against mouse J774A.1 cells assessed as reduction in cell proliferation at 500 uM after 72 hrs by crystal violet staining based assay. In kind it is functional.
For experiment [8], the target named is T1, Farnesyl pyrophosphate synthase (Homo sapiens). Put plainly: Inhibition of recombinant human C-terminal His6-tagged FPPS expressed in Escherichia coli BL21 at 1 to 10 uM using DMAPP and IPP as substrates pretreated for 15 mins followed by substrates addition and measured after 1 hr by colorimetric method relative to control.
The test system of experiment [9] is PC-3. Put plainly: Antiproliferative activity against human PC3 cells assessed as change in cell proliferation at 100 uM after 72 hrs by crystal violet staining based assay relative to control. In kind it is functional.
In experiment [10] the test system is MG-63. Put plainly: Antiproliferative activity against human MG63 cells assessed as change in cell proliferation at 100 uM after 72 hrs by crystal violet staining based assay relative to control. In kind it is functional.
Experiment [11] has as its target T2, Geranylgeranyl pyrophosphate synthase (Homo sapiens) (UniProt O95749).
T2 sequence (whole entry): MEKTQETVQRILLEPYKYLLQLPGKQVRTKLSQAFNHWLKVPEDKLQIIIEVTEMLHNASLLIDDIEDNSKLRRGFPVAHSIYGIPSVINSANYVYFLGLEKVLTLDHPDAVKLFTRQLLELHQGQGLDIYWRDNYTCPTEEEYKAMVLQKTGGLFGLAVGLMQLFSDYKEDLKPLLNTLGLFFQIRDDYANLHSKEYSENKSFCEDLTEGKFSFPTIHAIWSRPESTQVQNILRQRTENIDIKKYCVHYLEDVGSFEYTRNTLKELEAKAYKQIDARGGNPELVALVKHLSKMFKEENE
The experiment can be described thus: Inhibition of recombinant human C-terminal His6-tagged GGPPS expressed in Escherichia coli BL21 at 1 to 10 uM using IPP and FPP as substrates pretreated for 15 mins followed by substrates addition and measured after 1 hr by colorimetric method relative to control.

Active and inactive are the calls of the source. The calls are words filed in the database; no cut-off is given here.

In the case of `O=P(O)(O)C(O)(CCCNc1ncccn1)P(=O)(O)O`, the outcome with MG-63 [1], in the experiment with PC-3 [5], in the experiment on RAW264.7 [6] and with J774.A1 [7] was inactive. Further, the Activity with J774.A1 [2] is -37.544%; with RAW264.7 [3], -44.249%; with PC-3 [9] it was -45.479%; with MG-63 [10] it was -3.759%. Also, the inhibition (usually the share of the control response that was lost under treatment) was 43% in [4], 68 to 79% in experiment [8] and 68 to 79% in experiment [11].
As to `O=P(O)(O)C(O)(CNc1nc2ccccc2s1)P(=O)(O)O`, the result in the experiment on MG-63 [1] and in the experiment with PC-3 [5] was inactive. Also, the inhibition entry in experiment [4] is “inactive”. Further, the inhibition in experiment [8] and in experiment [11] was 68 to 79% in each case.
For `O=P(O)(O)C(O)(CCCCc1ncccn1)P(=O)(O)O`, the outcome with MG-63 [1], in the experiment on PC-3 [5], with RAW264.7 [6] and in the experiment on J774.A1 [7] was inactive. The Activity with J774.A1 [2] was -24.754%; in the experiment with RAW264.7 [3], -35.941%; in the experiment on PC-3 [9], -14.446%; with MG-63 [10] it was -0.023%. For the same compound, the inhibition in experiment [4] was 51%; in experiment [8], 68 to 79%; in experiment [11] it was 68 to 79%.
For the compound `O=P(O)(O)C(O)(CCNc1ncccn1)P(=O)(O)O`, the result with MG-63 [1], with PC-3 [5], in the experiment on RAW264.7 [6] and in the experiment with J774.A1 [7] was inactive. Also, the Activity in the experiment on J774.A1 [2] was -3.329%; in the experiment with RAW264.7 [3], -18.897%; with PC-3 [9], -49.419%; in the experiment with MG-63 [10], -18.291%. In addition, the inhibition was 54% in [4], 68 to 79% in experiment [8] and 68 to 79% in experiment [11].
Consider `O=P(O)(O)C(O)(CCCNc1ncc2ccccc2n1)P(=O)(O)O`, for which the result with MG-63 [1], in the experiment on PC-3 [5], in the experiment on RAW264.7 [6] and in the experiment with J774.A1 [7] was inactive. Also, the Activity is -58.954% with J774.A1 [2], -24.106% with RAW264.7 [3], -19.628% in the experiment on PC-3 [9] and 5.921% in the experiment on MG-63 [10]. Further, the inhibition in experiment [4] was 30%; in experiment [8] it was 68 to 79%; in experiment [11] it was 68 to 79%.
Turning to `O=P(O)(O)C(O)(CNc1nc(-c2ccccc2)nc2ccccc12)P(=O)(O)O`, the outcome in the experiment with MG-63 [1], in the experiment on PC-3 [5], in the experiment with RAW264.7 [6] and in the experiment with J774.A1 [7] was inactive. Besides, the Activity with J774.A1 [2] is listed as -55.522%; with RAW264.7 [3], -51.774%; in the experiment on PC-3 [9], 0.156%; in the experiment with MG-63 [10], -1.127%. Besides, the inhibition in experiment [4] was 21%; in experiment [8], 68 to 79%; in experiment [11], 68 to 79%.
Consider `O=P(O)(O)C(O)(CCCCc1ncc2ccccc2n1)P(=O)(O)O`, for which the result in the experiment with MG-63 [1], with PC-3 [5], in the experiment on RAW264.7 [6] and with J774.A1 [7] was inactive. For the same compound, the Activity in the experiment with J774.A1 [2] is -47.396%; in the experiment with RAW264.7 [3], -50.127%; in the experiment with PC-3 [9] it was -16.093%; in the experiment on MG-63 [10], -2.74%. Further, the results for the inhibition in experiment [4], in experiment [8] and in experiment [11] were 48%, 68 to 79% and 68 to 79%, respectively.
As for `O=P(O)(O)C(O)(CSc1nc2ccccc2[nH]1)P(=O)(O)O`, the outcome with MG-63 [1] and in the experiment on PC-3 [5] was inactive. For the same compound, the inhibition in [4] was 24%; in [8], 68 to 79%; in [11], 68 to 79%.
Turning to `O=P(O)(O)C(O)(CSc1nc2ccccc2s1)P(=O)(O)O`, the outcome with MG-63 [1] and in the experiment on PC-3 [5] was inactive. Also, the inhibition in experiment [4] is 26%; in experiment [8], 68 to 79%; in experiment [11] it was 68 to 79%.
On to `O=P(O)(O)C(O)(CCCNc1ncnc2ccccc12)P(=O)(O)O`, for which the result in the experiment with MG-63 [1], in the experiment on PC-3 [5], with RAW264.7 [6] and in the experiment on J774.A1 [7] was inactive. Also, the Activity in the experiment on J774.A1 [2] is -10.813%; with RAW264.7 [3], -16.077%; in the experiment with PC-3 [9], -27.057%; in the experiment on MG-63 [10], 21.28%. The values for the inhibition in experiment [4], in experiment [8] and in experiment [11] were 25%, 68 to 79% and 68 to 79%, respectively.
Turning to `O=P(O)(O)C(O)(CCNc1ncnc2ccccc12)P(=O)(O)O`, the result in the experiment with MG-63 [1], in the experiment on PC-3 [5], with RAW264.7 [6] and in the experiment with J774.A1 [7] was inactive. Besides, the Activity in the experiment with J774.A1 [2] is 6.688%; with RAW264.7 [3] it was -16.95%; with PC-3 [9] it was -1.552%; with MG-63 [10] it was 13.185%. In addition, the figures for the inhibition in experiment [4], in experiment [8] and in experiment [11] were 56%, 68 to 79% and 68 to 79%, respectively.
With `CC(Nc1ncnc2ccccc12)C(O)(P(=O)(O)O)P(=O)(O)O` (racemic), the result with MG-63 [1], with PC-3 [5], in the experiment with RAW264.7 [6] and in the experiment on J774.A1 [7] was inactive. Also, the Activity with J774.A1 [2] is recorded as -5.898%; with RAW264.7 [3] it was -11.295%; in the experiment on PC-3 [9], -15.839%; in the experiment with MG-63 [10], -4.026%. Also, the values for the inhibition in experiment [4], in [8] and in experiment [11] were 56%, 68 to 79% and 68 to 79%, respectively.
As to `CC(Nc1ncc2ccccc2n1)C(O)(P(=O)(O)O)P(=O)(O)O` (racemic), the result in the experiment on MG-63 [1], in the experiment with PC-3 [5], in the experiment with RAW264.7 [6] and with J774.A1 [7] was inactive. The Activity in the experiment with J774.A1 [2] is given as -18.855%; in the experiment on RAW264.7 [3], -16.783%; with PC-3 [9], -17.252%; in the experiment on MG-63 [10], -8.959%. Further, the results for the inhibition in experiment [4], in [8] and in experiment [11] were 40%, 68 to 79% and 68 to 79%, respectively.
With `O=P(O)(O)C(O)(CCCCc1ncnc2ccccc12)P(=O)(O)O`, the result with MG-63 [1], in the experiment with PC-3 [5], in the experiment on RAW264.7 [6] and with J774.A1 [7] was inactive. The Activity is listed as -15.466% in the experiment with J774.A1 [2], -29.565% with RAW264.7 [3], -10.283% in the experiment on PC-3 [9] and 24.024% in the experiment on MG-63 [10]. The inhibition was 29% in experiment [4], 68 to 79% in experiment [8] and 68 to 79% in [11].
With `O=P(O)(O)C(O)(CCNc1nc(-c2ccccc2)nc2ccccc12)P(=O)(O)O`, the result with MG-63 [1], in the experiment on PC-3 [5], in the experiment with RAW264.7 [6] and in the experiment on J774.A1 [7] was inactive. Further, the Activity in the experiment on J774.A1 [2] is listed as -37.121%; in the experiment on RAW264.7 [3], -30.319%; with PC-3 [9] it was -21.523%; with MG-63 [10], -5.102%. Also, the values for the inhibition in [4], in experiment [8] and in experiment [11] were 25%, 68 to 79% and 68 to 79%, respectively.

For the origin of these results see ChEMBL document CHEMBL4265921, “Novel bisphosphonates with antiresorptive effect in bone mineralization and osteoclastogenesis” (Eur J Med Chem, 2018).
